The assay concerns the target PI3K (phosphatidylinositol 3-kinase). Nature of the assay: PI3K enzyme activity assay, dose response […]. The class given is biochemical.

This note sets out measurements from article PMC9864330, “Two New Alkaloids and a New Butenolide Derivative from the Beibu Gulf Sponge-Derived Fungus Penicillium sp. SCSIO 41413” (Marine Drugs, 2022).

The structures appear in SMILES notation.

A word on the IC50: it is the midpoint of a concentration-inhibition curve. A lower IC50 goes with higher potency. As to `O=C1OC(O)C(Cc2ccc(O)cc2)=C1c1ccc(O)c(O)c1` (racemic) [compound 12, 8-hydroxyhelvafuranone], the IC50 worked out at 9.8 µM.
Consider `O=C1OCC(Cc2ccc(O)c(O)c2)=C1c1ccc(O)c(O)c1` [compound 11, eutypoid F], for which the IC50 amounted to 1.7 µM.
